In ChEMBL document CHEMBL1201862, “PubChem BioAssay data set” (2004):
Active and inactive are the calls of the source.

Legend:
[1] = biological target: T1, Sentrin-specific protease 6 (Homo sapiens, UniProt Q9GZR1); assay type: functional;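 note: Luminescence-based dose-response confirmatory assay of SENP6 inhibition, following up an ultra-high-throughput screen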
T1 sequence (Q9GZR1 whole entry): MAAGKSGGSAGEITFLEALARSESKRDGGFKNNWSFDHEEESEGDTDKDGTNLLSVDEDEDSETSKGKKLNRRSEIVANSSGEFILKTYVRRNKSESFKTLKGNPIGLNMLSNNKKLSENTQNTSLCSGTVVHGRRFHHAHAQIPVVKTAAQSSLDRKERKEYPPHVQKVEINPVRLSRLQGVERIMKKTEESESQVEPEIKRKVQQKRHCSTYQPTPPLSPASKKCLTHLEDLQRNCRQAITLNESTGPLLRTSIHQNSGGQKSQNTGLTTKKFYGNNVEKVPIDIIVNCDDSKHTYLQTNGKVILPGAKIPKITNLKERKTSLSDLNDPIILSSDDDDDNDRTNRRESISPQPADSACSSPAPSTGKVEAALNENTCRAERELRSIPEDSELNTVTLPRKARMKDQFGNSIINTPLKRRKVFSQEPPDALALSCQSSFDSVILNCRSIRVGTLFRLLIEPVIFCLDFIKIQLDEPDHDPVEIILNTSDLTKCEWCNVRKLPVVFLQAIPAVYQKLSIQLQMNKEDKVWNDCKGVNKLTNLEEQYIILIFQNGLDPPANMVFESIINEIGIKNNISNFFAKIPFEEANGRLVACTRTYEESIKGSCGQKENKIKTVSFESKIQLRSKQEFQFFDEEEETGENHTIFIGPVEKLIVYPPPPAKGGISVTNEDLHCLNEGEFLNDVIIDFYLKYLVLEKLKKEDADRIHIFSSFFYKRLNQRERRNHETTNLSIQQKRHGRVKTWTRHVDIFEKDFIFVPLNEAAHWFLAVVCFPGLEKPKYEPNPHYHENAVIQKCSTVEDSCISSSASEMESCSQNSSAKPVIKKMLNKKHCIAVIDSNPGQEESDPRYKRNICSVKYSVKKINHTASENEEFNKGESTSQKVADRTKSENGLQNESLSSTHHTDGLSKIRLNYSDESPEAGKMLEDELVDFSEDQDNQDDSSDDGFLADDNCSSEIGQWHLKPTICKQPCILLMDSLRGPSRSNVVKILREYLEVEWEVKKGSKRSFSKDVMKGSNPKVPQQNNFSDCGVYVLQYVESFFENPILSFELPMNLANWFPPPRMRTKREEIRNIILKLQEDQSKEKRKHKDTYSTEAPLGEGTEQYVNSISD

[2] = biological target: T2, Rac GTPase-activating protein 1 (Homo sapiens, UniProt Q9H0H5); test: MgcRacGAP GTPase-activating activity inhibitors, confirmation, biochemical, ADP Hunter fluorescence, primary and confirmatory (AID 624330); assay type: functional
T2 sequence (Q9H0H5 whole entry): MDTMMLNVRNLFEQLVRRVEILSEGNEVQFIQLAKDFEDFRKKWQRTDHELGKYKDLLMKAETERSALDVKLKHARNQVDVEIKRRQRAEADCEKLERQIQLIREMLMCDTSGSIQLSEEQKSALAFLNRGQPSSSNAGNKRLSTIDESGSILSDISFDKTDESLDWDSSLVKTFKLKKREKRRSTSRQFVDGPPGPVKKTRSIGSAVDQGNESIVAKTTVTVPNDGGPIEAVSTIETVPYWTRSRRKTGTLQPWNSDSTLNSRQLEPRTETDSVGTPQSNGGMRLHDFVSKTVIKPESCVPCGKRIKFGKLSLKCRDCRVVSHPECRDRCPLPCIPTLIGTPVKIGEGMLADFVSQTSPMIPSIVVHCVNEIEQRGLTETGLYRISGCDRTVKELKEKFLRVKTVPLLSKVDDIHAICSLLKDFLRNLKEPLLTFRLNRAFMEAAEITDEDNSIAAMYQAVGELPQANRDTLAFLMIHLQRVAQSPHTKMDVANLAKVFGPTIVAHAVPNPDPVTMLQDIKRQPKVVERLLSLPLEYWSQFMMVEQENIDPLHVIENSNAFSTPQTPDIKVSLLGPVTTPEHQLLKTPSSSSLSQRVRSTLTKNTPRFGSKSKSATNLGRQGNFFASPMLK

[3] = biological target: Voltage-gated N-type calcium channel alpha-1B subunit/Amyloid beta A4 precursor protein-binding family A member 1 (Homo sapiens, UniProt Q00975+Q02410); assay type: protein assay
[4] = biological target: DNA dC->dU-editing enzyme APOBEC-3A (Homo sapiens, UniProt P31941); test: APOBEC3A DNA deaminase inhibitors, dose response, biochemical (AID 504722); assay type: functional
DNA dC->dU-editing enzyme APOBEC-3A, sequence (P31941 whole entry): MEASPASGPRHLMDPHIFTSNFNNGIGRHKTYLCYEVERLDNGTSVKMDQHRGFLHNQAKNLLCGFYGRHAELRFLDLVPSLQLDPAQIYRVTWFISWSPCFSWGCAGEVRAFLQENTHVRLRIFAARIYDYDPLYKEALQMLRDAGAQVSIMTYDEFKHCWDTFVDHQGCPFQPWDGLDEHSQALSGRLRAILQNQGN

[5] = biological target: T3, Replicative DNA helicase DnaB (Mycobacterium tuberculosis, UniProt P9WMR3); test: DnaB intein splicing inhibitors, dose response, biochemical, cell-free fluorescence (AID 449749); assay type: functional
T3 sequence (P9WMR3 whole entry): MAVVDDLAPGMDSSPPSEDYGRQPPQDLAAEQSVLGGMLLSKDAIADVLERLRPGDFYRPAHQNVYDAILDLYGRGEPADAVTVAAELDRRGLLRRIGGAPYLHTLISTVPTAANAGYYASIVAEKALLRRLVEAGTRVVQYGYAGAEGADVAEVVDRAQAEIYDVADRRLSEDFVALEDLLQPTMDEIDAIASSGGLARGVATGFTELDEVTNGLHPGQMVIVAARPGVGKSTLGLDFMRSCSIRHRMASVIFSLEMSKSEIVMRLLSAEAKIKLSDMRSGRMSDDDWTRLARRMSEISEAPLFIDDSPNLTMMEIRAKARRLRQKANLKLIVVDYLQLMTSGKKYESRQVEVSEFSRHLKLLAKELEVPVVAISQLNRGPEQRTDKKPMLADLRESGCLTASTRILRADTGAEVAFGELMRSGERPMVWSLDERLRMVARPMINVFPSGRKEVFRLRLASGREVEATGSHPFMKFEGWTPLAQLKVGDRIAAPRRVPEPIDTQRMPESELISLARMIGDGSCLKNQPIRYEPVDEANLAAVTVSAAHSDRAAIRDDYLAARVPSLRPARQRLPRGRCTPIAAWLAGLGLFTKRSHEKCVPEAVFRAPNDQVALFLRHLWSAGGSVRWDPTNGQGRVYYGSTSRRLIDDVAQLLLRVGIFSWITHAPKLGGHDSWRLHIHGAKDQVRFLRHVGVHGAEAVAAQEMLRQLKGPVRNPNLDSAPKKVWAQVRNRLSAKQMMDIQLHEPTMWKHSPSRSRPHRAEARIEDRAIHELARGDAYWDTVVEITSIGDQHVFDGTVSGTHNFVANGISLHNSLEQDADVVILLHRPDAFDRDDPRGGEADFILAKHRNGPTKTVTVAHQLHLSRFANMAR

[6] = biological target: BDNF/NT-3 growth factors receptor (Homo sapiens, UniProt Q16620); assay type: functional;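 note: NTRK2 measured as one member of a broad kinome-wide kinase profiling panel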
BDNF/NT-3 growth factors receptor, sequence (Q16620 whole entry): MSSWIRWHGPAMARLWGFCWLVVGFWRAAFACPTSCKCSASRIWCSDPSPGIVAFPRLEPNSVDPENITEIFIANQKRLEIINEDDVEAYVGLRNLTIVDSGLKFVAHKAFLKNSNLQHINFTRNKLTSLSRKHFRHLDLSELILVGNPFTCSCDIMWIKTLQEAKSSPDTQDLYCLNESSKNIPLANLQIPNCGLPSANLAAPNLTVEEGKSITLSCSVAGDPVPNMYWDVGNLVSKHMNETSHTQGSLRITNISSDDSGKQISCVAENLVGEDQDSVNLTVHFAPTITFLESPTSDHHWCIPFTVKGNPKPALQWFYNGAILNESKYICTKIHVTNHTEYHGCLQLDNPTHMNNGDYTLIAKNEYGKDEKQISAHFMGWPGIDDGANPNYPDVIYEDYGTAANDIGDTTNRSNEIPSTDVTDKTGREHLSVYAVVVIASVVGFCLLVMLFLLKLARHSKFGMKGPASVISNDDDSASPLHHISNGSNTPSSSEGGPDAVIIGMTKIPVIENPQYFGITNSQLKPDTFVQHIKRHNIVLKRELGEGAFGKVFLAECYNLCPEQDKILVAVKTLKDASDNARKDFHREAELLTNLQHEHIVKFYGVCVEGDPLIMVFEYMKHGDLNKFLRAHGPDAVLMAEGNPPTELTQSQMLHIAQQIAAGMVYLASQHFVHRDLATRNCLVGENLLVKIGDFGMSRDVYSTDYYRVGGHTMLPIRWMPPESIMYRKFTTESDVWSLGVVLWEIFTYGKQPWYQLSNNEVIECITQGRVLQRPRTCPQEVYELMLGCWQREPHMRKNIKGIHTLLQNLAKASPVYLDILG

[7] = biological target: Tyrosine-protein kinase Fyn (Homo sapiens, UniProt P06241); assay type: functional
Tyrosine-protein kinase Fyn, sequence (P06241 whole entry): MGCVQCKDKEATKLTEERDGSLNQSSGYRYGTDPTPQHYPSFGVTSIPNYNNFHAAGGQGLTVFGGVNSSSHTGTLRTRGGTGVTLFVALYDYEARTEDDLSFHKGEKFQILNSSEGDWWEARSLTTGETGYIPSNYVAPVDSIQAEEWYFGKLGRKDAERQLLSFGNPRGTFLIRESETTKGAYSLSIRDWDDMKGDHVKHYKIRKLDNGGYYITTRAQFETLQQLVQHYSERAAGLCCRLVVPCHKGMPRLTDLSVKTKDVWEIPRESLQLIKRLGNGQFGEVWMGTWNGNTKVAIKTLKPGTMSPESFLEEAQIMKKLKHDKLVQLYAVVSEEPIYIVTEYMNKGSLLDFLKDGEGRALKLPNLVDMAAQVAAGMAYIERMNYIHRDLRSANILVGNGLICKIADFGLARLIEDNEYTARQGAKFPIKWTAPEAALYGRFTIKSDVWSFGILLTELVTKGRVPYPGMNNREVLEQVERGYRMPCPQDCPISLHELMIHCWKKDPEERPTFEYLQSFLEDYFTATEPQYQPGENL

[8] = biological target: Ribosomal protein S6 kinase alpha-3 (Homo sapiens, UniProt P51812); assay type: functional;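 note: measured within a kinome-wide profiling panel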
Ribosomal protein S6 kinase alpha-3, sequence (P51812 whole entry): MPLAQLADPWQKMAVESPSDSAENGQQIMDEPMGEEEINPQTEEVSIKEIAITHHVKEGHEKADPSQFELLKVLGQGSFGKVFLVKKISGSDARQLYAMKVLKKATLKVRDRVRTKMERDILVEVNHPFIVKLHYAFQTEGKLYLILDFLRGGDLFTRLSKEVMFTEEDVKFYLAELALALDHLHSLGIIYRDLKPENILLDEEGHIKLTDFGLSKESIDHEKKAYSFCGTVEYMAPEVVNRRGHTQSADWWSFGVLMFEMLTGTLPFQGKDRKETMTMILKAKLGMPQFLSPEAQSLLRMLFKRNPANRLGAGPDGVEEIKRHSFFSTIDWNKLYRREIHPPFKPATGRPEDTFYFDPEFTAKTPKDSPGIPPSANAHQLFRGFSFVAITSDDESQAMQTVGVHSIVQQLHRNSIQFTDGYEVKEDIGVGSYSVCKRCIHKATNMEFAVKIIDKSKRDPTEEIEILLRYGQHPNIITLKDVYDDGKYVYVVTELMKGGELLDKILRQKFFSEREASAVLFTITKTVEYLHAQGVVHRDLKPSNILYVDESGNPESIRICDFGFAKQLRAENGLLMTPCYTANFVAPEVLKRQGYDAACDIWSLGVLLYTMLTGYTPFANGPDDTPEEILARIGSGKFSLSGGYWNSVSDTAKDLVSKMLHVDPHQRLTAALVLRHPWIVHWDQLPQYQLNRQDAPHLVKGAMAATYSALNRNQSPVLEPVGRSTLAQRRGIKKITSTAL

[9] = biological target: Protein kinase C theta type (Homo sapiens, UniProt Q04759); test: Navigating the Kinome. Panel member name: PRKCQ; assay type: functional
Protein kinase C theta type, sequence (Q04759 whole entry): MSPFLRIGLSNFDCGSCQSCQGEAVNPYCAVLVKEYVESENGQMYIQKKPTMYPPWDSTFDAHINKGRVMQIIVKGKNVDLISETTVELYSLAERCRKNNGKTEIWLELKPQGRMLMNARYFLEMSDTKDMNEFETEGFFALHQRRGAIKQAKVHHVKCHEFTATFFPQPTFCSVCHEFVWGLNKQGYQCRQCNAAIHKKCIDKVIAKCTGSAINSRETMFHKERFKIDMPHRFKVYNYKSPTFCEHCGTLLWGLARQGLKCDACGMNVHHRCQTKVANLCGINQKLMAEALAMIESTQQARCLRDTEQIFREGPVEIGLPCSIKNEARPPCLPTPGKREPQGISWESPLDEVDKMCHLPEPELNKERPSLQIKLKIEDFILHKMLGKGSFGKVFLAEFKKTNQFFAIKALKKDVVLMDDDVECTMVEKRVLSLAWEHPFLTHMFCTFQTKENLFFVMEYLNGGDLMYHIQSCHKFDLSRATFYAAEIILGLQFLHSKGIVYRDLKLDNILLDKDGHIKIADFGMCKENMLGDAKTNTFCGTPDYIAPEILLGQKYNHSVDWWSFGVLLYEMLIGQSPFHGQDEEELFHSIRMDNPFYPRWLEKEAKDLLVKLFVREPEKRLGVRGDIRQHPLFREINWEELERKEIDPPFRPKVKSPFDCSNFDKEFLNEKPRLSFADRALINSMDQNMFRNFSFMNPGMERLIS

CC(=O)N(C1=C(Cl)C(=O)c2ccccc2C1=O)c1ccc(C(=O)O)cc1
IC50 [1]: 4.08 µM (active) | IC50 [2]: 165 µM (active) | IC50 [3]: 0.225 µM (active) | IC50 [4]: > 100 µM (inactive)

CC1(C)C=C2C(=NN(c3ccccc3)C(N)=C2C#N)CO1
AC50 [5]: > 380 µM (inconclusive)

Cc1ccc(-c2cc3nc(Br)cnc3[nH]2)cc1
Ki [6]: > 3.98 µM (inactive) | Ki [7]: > 6.31 µM (inactive) | Ki [8]: > 3.98 µM (inactive) | Ki [9]: > 2.51 µM (inactive)
